Counter-ions that a name gives are not always drawn.
Legend:
[1] = test system: mexB (PA) strain; test: Combinational effect with antibacterial agent against Pseudomonas aeruginosa (Test Examples 2 and 4): mexB (PA) strain with LVFX, TC or AZT at 1/4 MIC, EC99; assay type: cell-based; conditions: for EC99, mexB (PA), AZT / EC99, mexB (PA), LVFX / EC99, mexB (PA), TC: Table 52, Test Example 2, 16 to 20 hours culture, OD595; for EC99, mexB (PA), AZT / EC99, combinational effect with AZT, mexB (PA): combined with AZT at 1/4 MIC; for EC99, mexB (PA), LVFX / EC99, combinational effect with LVFX, mexB (PA): combined with LVFX at 1/4 MIC; for EC99, mexB (PA), TC / EC99, combinational effect with TC, mexB (PA): combined with TC at 1/4 MIC; for EC99, combinational effect with AZT, mexB (PA) / EC99, combinational effect with LVFX, mexB (PA) / EC99, combinational effect with TC, mexB (PA): mexB (PA) strain, Test Example 4
Outline: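 EC99 denotes the minimum test-compound concentration (range 0–800 μM) that suppresses ≥99% of growth, measured by OD595, when combined with ¼ MIC levofloxacin (LVFX), tetracycline or aztreonam. The efflux-pump mutant mexB (PA), expressing mainly MexAB-OprM, was inoculated at 10^4–5 CFU/well in CAMHB for 16–20 h.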

[2] = test system: S-3769 strain; test: Combinational effect with antibacterial agent against Pseudomonas aeruginosa (Test Examples 2 and 4): S-3769 strain with AMK or GM at 1/4 MIC, EC99; assay type: cell-based; conditions: for EC99, S-3769 strain, AMK / EC99, S-3769 strain, GM: Table 52, Test Example 2, 16 to 20 hours culture, OD595; for EC99, S-3769 strain, AMK / EC99, combinational effect with AMK, S-3769 strain: combined with AMK at 1/4 MIC; for EC99, S-3769 strain, GM / EC99, combinational effect with GM, S-3769 strain: combined with GM at 1/4 MIC; for EC99, combinational effect with AMK, S-3769 strain / EC99, combinational effect with GM, S-3769 strain: Test Example 4
Outline: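 EC99, the lowest test-compound concentration inhibiting growth by ≥99% (OD595), was measured with aminoglycoside AMK or GM held at ¼ MIC. Strain S-3769, a MexY-overexpressing clinical isolate, was cultured in CAMHB at 10^4 to 5 CFU/well for 16–20 h; compound range 0–800 μM.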

Compound	EC99, mexB (PA), AZT [1]	EC99, mexB (PA), LVFX [1]	EC99, mexB (PA), TC [1]	EC99, S-3769 strain, AMK [2]	EC99, S-3769 strain, GM [2]	EC99, combinational effect with AZT, mexB (PA) [1]	EC99, combinational effect with LVFX, mexB (PA) [1]	EC99, combinational effect with TC, mexB (PA) [1]	EC99, combinational effect with AMK, S-3769 strain [2]	EC99, combinational effect with GM, S-3769 strain [2]
CCOc1cccc(F)c1CN1CCN(C(=O)[C@H](N)C2CCN(CCc3coc4ccccc34)CC2)CC1 [Example 152, Hydrobromide of (R)-2-amino-2-(1-(2-(benzofuran-3-yl)ethyl)piperidin-4-yl)-1-(4-(2-ethoxy-6-fluorobenzyl)piperazin-1-yl) ethan-1-one]	C (100 μM<EC99)	C (100 μM<EC99)	C (100 μM<EC99)	S (EC99≤12.5 μM)	S (EC99≤12.5 μM)	–	–	–	–	–
CCOc1cccc(F)c1CN1CCN(C(=O)[C@H](N)C2CCN(CCC3COc4ccccc4C3)CC2)CC1 (stereo partly drawn) [Example 153, Hydrobromide of (2R)-2-amino-2-(1-(2-(chroman-3-yl)ethyl)piperidin-4-yl)-1-(4-(2-ethoxy-6-fluorobenzyl)piperazin-1-yl)ethan-1-one]	C (100 μM<EC99)	C (100 μM<EC99)	C (100 μM<EC99)	S (EC99≤12.5 μM)	S (EC99≤12.5 μM)	–	–	–	–	–
CCOc1cccc(F)c1CN1CCN(C(=O)[C@H](N)C2CCN(CCn3ccc4ccccc43)CC2)CC1 [Example 159, Hydrobromide of (R)-2-(1-(2-(1H-indol-1-yl)ethyl)piperidin-4-yl)-2-amino-1-(4-(2-ethoxy-6-fluorobenzyl)piperazin-1-yl)ethan-1-one]	C (100 μM<EC99)	C (100 μM<EC99)	C (100 μM<EC99)	B (25 μM<EC99≤100 μM)	C (100 μM<EC99)	–	–	–	–	–
CCOc1cccc(F)c1CN1CCN(C(=O)CN2CCC(O)(CCc3ccccc3)CC2)CC1 [Example 422, hydrochloride of 1-(4-(2-ethoxy-6-fluorobenzyl)piperazin-1-yl)-2-(4-hydroxy-4-phenethylpiperidin-1-yl)ethan-1-one]	A (12.5 μM<EC99≤25 μM)	B (25 μM<EC99≤100 μM)	A (12.5 μM<EC99≤25 μM)	C (100 μM<EC99)	C (100 μM<EC99)	–	–	–	–	–
CCOc1cccc(F)c1CN1CCN(C(=O)CN2CCC(CN)(CCc3ccccc3)CC2)CC1 [Example 425, hydrobromide of 2-(4-(aminomethyl)-4-phenethylpiperidin-1-yl)-1-(4-(2-ethoxy-6-fluorobenzyl)piperazin-1-yl)ethan-1-one]	C (100 μM<EC99)	C (100 μM<EC99)	C (100 μM<EC99)	B (25 μM<EC99≤100 μM)	B (25 μM<EC99≤100 μM)	–	–	–	–	–
CCOc1cccc(F)c1CN1CCN(C(=O)CN2CCC(CCc3ccccc3)(CNCCN)CC2)CC1 [Example 426, hydrochloride of 2-(4-(((2-aminoethyl)amino)methyl)-4-phenethylpiperidin-1-yl)-1-(4-(2-ethoxy-6-fluorobenzyl)piperazin-1-yl)ethan-1-one]	B (25 μM<EC99≤100 μM)	–	B (25 μM<EC99≤100 μM)	B (25 μM<EC99≤100 μM)	B (25 μM<EC99≤100 μM)	–	–	–	–	–
CCOc1cccc(F)c1CN1CCN(C(=O)[C@H](N)C2CCN(CCc3cc(Cl)ccc3-c3cn[nH]c3)CC2)CC1 [Example 502, Hydrobromide of (R)-2-amino-2-(1-(S-chloro-2-(1H-pyrazol-4-yl)phenethyl)piperidin-4-yl)-1-(4-(2-ethoxy-6-fluorobenzyl)piperazin-1-yl)ethan-1-one]	–	–	–	–	–	C (100 μM<EC99)	B (25 μM<EC99≤100 μM)	B (25 μM<EC99≤100 μM)	S (EC99≤12.5 μM)	S (EC99≤12.5 μM)
CCOc1cccc(F)c1CN1CCN(C(=O)[C@H](N)C2CCN(CCc3cc(Cl)ccc3-c3cncs3)CC2)CC1 [Example 504, Hydrobromide of (R)-2-amino-2-(1-(5-chloro-2-(thiazol-5-yl)phenethyl)piperidin-4-yl)-1-(4-(2-ethoxy-6-fluorobenzyl)piperazin-1-yl)ethan-1-one]	–	–	–	–	–	B (25 μM<EC99≤100 μM)	B (25 μM<EC99≤100 μM)	B (25 μM<EC99≤100 μM)	A (12.5 μM<EC99≤25 μM)	A (12.5 μM<EC99≤25 μM)
CCc1ccccc1CN1CCN(C(=O)[C@H](N)C2CCN(CCc3cc(Cl)ccc3-c3ccccc3)CC2)CC1 [Example 505, Hydrobromide of (R)-2-amino-2-(1-(2-(4-chloro-[1,1-biphenyl]-2-yl)ethyl)piperidin-4-yl)-1-(4-(2-ethylbenzyl)piperazin-1-yl)ethan-1-one]	–	–	–	–	–	B (25 μM<EC99≤100 μM)	B (25 μM<EC99≤100 μM)	B (25 μM<EC99≤100 μM)	B (25 μM<EC99≤100 μM)	B (25 μM<EC99≤100 μM)
N[C@@H](C(=O)N1CCN(Cc2ccccc2C2CC2)CC1)C1CCN(CCc2cc(Cl)ccc2-c2ccccc2)CC1 [Example 507, Hydrobromide of (R)-2-amino-2-(1-(2-(4-chloro-[1,1-biphenyl]-2-yl)ethyl)piperidin-4-yl)-1-(4-(2-cyclopropylbenzyl)piperazin-1-yl)ethan-1-one]	–	–	–	–	–	B (25 μM<EC99≤100 μM)	B (25 μM<EC99≤100 μM)	B (25 μM<EC99≤100 μM)	B (25 μM<EC99≤100 μM)	B (25 μM<EC99≤100 μM)
N[C@@H](C(=O)N1CCN(Cc2ccccc2C(F)(F)F)CC1)C1CCN(CCc2cc(Cl)ccc2-c2ccccc2)CC1 [Example 510, Hydrobromide of (R)-2-amino-2-(1-(2-(4-chloro-[1,1-biphenyl]-2-yl)ethyl)piperidin-4-yl)-1-(4-(2-(trifluoromethyl)benzyl)piperazin-1-yl)ethan-1-one]	–	–	–	–	–	B (25 μM<EC99≤100 μM)	B (25 μM<EC99≤100 μM)	A (12.5 μM<EC99≤25 μM)	A (12.5 μM<EC99≤25 μM)	B (25 μM<EC99≤100 μM)
CCOc1ncccc1CN1CCN(C(=O)[C@H](N)C2CCN(CCc3cc(Cl)ccc3-c3ccccc3)CC2)CC1 [Example 511, Hydrobromide of (R)-2-amino-2-(1-(2-(4-chloro-[1,1-biphenyl]-2-yl)ethyl)piperidin-4-yl)-1-(4-((2-ethoxypyridin-3-yl)methyl)piperazin-1-yl)ethan-1-one]	–	–	–	–	–	B (25 μM<EC99≤100 μM)	C (100 μM<EC99)	B (25 μM<EC99≤100 μM)	B (25 μM<EC99≤100 μM)	A (12.5 μM<EC99≤25 μM)
CCOc1ccncc1CN1CCN(C(=O)[C@H](N)C2CCN(CCc3cc(Cl)ccc3-c3ccccc3)CC2)CC1 [Example 512, Hydrobromide of (R)-2-amino-2-(1-(2-(4-chloro-[1,1-biphenyl]-2-yl)ethyl)piperidin-4-yl)-1-(4-((4-ethoxypyridin-3-yl)methyl)piperazin-1-yl)ethan-1-one]	–	–	–	–	–	B (25 μM<EC99≤100 μM)	B (25 μM<EC99≤100 μM)	B (25 μM<EC99≤100 μM)	A (12.5 μM<EC99≤25 μM)	A (12.5 μM<EC99≤25 μM)
N[C@@H](C(=O)N1CCN(Cc2cccc3c2CCN3)CC1)C1CCN(CCc2cc(Cl)ccc2-c2ccccc2)CC1 [Example 513, Hydrobromide of (R)-2-amino-2-(1-(2-(4-chloro-[1,1-biphenyl]-2-yl)ethyl)piperidin-4-yl)-1-(4-(indolin-4-ylmethyl)piperazin-1-yl)ethan-1-one]	–	–	–	–	–	B (25 μM<EC99≤100 μM)	B (25 μM<EC99≤100 μM)	B (25 μM<EC99≤100 μM)	B (25 μM<EC99≤100 μM)	B (25 μM<EC99≤100 μM)
N[C@@H](C(=O)N1CCN(Cc2cccc3c2CCCO3)CC1)C1CCN(CCc2cc(Cl)ccc2-c2ccccc2)CC1 [Example 515, Hydrobromide of (R)-2-amino-2-(1-(2-(4-chloro-[1,1-biphenyl]-2-yl)ethyl)piperidin-4-yl)-1-(4-(chroman-5-ylmethyl)piperazin-1-yl)ethan-1-one]	–	–	–	–	–	B (25 μM<EC99≤100 μM)	B (25 μM<EC99≤100 μM)	A (12.5 μM<EC99≤25 μM)	B (25 μM<EC99≤100 μM)	B (25 μM<EC99≤100 μM)

Source: patent US20250326744A1, “PIPERAZINE DERIVATIVE OR SALT THEREOF, AND PHARMACEUTICAL COMPOSITION” (priority 2022, published 2025)
